Data on one compound can be found in US20190125786A1, “NOBLE GAS MODULATION OF IL-12” (NOBILIS THERAPEUTICS, INC., priority 2016, published 2019).

The test system of assay [1] is monocytes (adherent peripheral blood mononuclear cells). Description: Suppression of Alzheimer's peptide induced monocyte TNF-alpha production (ELISA). Format: cell-based, healthy volunteers. Conditions: adherent cells cultured 1 hour or 2 hours in 30% xenon by volume; 1 ug/ml LPS and 10 μM Aβ (1-42) for 24 h; supernatant ELISA; FIG. 1. Here is the method:
10 ml of heparinized blood was extracted from healthy volunteers and peripheral blood mononuclear cells were isolated by centrifugation over a ficoll gradient. Cells were subsequently washed in 2× volume phosphate buffered saline, and resuspended in RPMI media supplemented with 10% fetal calf serum. Cells were incubated at a concentration of 10 million cells per ml in 6-well plates in a volume of 2 ml per well. Cells were cultured for 24 hours at 37 Celsius in a fully humidified atmosphere with 5% CO2, subsequent to which non-adherent cells were removed by washing with PBS. Adherent cells were subsequently divided into […], one plate incubated at normoxic tissue culture, the second plate cultured for 1 hour in 30% xenon by volume, and the third tissue cultured for 2 hours in 30% volume. Cells were treated with control media, 1 ug/ml LPS and 10 μM of amyloid beta peptide Aβ (1-42) for 24 h. Supernatant was collected and assessed for TNF-alpha production by ELISA.
In general terms: An ELISA detects its analyte on a solid surface through an enzyme-linked reagent.

The next assay concerns CD1c dendritic cells. Briefly: Suppression of Alzheimer's peptide induced dendritic cell IL-12 production (ELISA). It counts as cell-based, healthy volunteers. The note with it: monocyte-derived CD1c dendritic cells; 1 ug/ml LPS and 10 μM Aβ (1-42) for 24 h; supernatant ELISA; FIG. 2. How it is done:
Monocytes from adherent PBMC were isolated as described in Example 1. Dendritic cells were generated by 7 day culture in IL-4 (10 ng/ml) and GM-CSF (20 ng/ml). Media was changed every two days. On day 7, purification of CD1c dendritic cells was performed and cells were cultured in control media, 1 ug/ml LPS and 10 μM of amyloid beta peptide Aβ (1-42) for 24 h. Supernatant was collected and assessed for IL-12 production by ELISA.

With `[Xe]` [xenon gas, xenon], the “induced TNF-alpha production” value in assay [1] was “suppression of induced TNF-alpha production was observed”. Besides, the “induced IL-12 production” value in the assay with CD1c dendritic cells is “suppression of induced IL-12 production was observed”.
